From patent publication US20250376458A1, “COMPOUNDS AND METHODS FOR YAP/TEAD MODULATION AND INDICATIONS THEREFOR” (OPNA BIO SA, priority 2023, published 2025) come the findings set out here.

For the first assay, the system named is TEAD-dependent transcription. The assay can be described thus: TEAD-dependent transcription cell-based luciferase reporter assay (MSTO-211H+12XGTIIC). Set-up: species or system human. Particulars: Homo sapiens, MSTO-211H, 24 h, MSTO-211H+12XGTIIC cell line, 24 hours compound incubation, luminescence normalized to cell viability fluorescence signal; read-out: MSTO-211H GMean IC50 (uM) Cell Assay Reporter Cell Variant: TEAD. The source says: Determine Inhibitor Activity Against TEAD-Dependent Transcription in a Cell-Based Reporter Assay
The human mesothelioma cell line MSTO-211H was stably transfected with a pGL4.21 plasmid containing a synthetic promoter with 12 copies of the GTIIC TEAD response element that drives the expression of a luciferase reporter gene i using Lipofectamine transfection reagent (Thermo Fisher). Transfected cells were selected using puromycin and single cell clones expressing this construct (referred to as MSTO-211H+12XGTIIC) were generated by limiting dilution. MSTO-211H cells was characterized by genetic alterations in key components of the Hippo pathway^2, resulting in up-regulation of YAP/TEAD-mediated transcription. […] To evaluate TEAD inhibitors, the MSTO-211H+12XGTIIC cell line was seeded in a 96-well plate in 50 μL of culture media at 1×10^4 cells per well and incubated at 37° C. overnight. Serial dilutions of compounds (in total volume of 50 μL of culture media) were added to the cells and incubated at 37° C. for 24 hours. Each plate included cells treated with DMSO as high controls and cells treated with 20 μM of the reference compound K-975 (a known TEAD inhibitor)^3 as low controls. Cell viability was assayed by the addition of 25 μL of CellTiter-Fluor reagent (Promega) followed by a 30-minute incubation at 37° C. and quantification of the fluorescence signal (Ex400/Em505). Subsequently, luciferase expression was assayed by the addition of 25 μL of ONE-Glo reagent (Promega) followed by a 10-minute incubation at room temperature and quantification of the luminescence signal. The luminescence signal was normalized to the fluorescence signal to correct for any loss in cell viability over the 24-hour compound incubation period. The percentage of inhibition of normalized luminescence signal, indicative of compound-mediated inhibition of TEAD-dependent transcription, at individual compound concentrations relative to high and low controls was calculated. The data were analyzed by using nonlinear regression to generate IC50 values for individual compounds.
For orientation: In a reporter assay the amount or activity of a reporter protein is the signal.
What is called IC50 is the concentration that gives 50% inhibition. Consider `CCCS(=O)(=O)c1nc(C(=O)N2CCc3cc(Oc4ccc(C(F)(F)F)cc4)ccc3C2)c[nH]1` [O-0081, (2-(propylsulfonyl)-1H-imidazol-4-yl)(6-(4-(trifluoromethyl)phenoxy)-3,4-dihydroisoquinolin-2(1H)-yl)methanone], for which the IC50 fell in the range of 0.001 to 10 µM. The same measure, in the same setting: next, `CNS(=O)(=O)c1nc(C(=O)N2CCc3cc(Oc4ccc(C(F)(F)F)cc4)ccc3C2)c[nH]1` [O-0111, N-methyl-4-(6-(4-(trifluoromethyl)phenoxy)-1,2,3,4-tetrahydroisoquinoline-2-carbonyl)-1H-imidazole-2-sulfonamide]: 0.001 to 10 µM. Same read-out and setting: the result for `CS(=O)(=O)c1nc(C(=O)N2CCc3c(cccc3OC3CCC(F)(F)CC3)C2)c[nH]1` [O-0112, (5-((4,4-difluorocyclohexyl)oxy)-3,4-dihydroisoquinolin-2(1H)-yl)(2-(methylsulfonyl)-1H-imidazol-4-yl)methanone] reads 0.001 to 10 µM; that for `CCS(=O)(=O)c1nc(C(=O)N2CCc3c(ncnc3Oc3ccc(C(F)(F)F)c(F)c3)C2)c[nH]1` [O-0113, (2-(ethylsulfonyl)-1H-imidazol-4-yl)(4-(3-fluoro-4-(trifluoromethyl)phenoxy)-5,8-dihydropyrido[3,4-d]pyrimidin-7(6H)-yl)methanone], 0.001 to 10 µM.

As for `CS(=O)(=O)c1nc(C(=O)N2CCc3c(cccc3Oc3ccc(C(F)(F)F)c(F)c3)C2)c[nH]1` [O-0114, (5-(3-fluoro-4-(trifluoromethyl)phenoxy)-3,4-dihydroisoquinolin-2(1H)-yl)(2-(methylsulfonyl)-1H-imidazol-4-yl)methanone], the IC50 was in the range of 0.001 to 10 µM. Take `CS(=O)(=O)c1nc(C(=O)N2CCc3c(cccc3Oc3ccc(C(F)(F)F)cc3F)C2)c[nH]1` [O-0118, (5-(2-fluoro-4-(trifluoromethyl)phenoxy)-3,4-dihydroisoquinolin-2(1H)-yl)(2-(methylsulfonyl)-1H-imidazol-4-yl)methanone]: the IC50 was in the range of 0.001 to 10 µM. In the case of `CS(=O)(=O)c1nc(C(=O)N2CCc3c(ncnc3Oc3ccc(C(F)(F)F)cc3F)C2)c[nH]1` [O-0120, (4-(2-fluoro-4-(trifluoromethyl)phenoxy)-5,8-dihydropyrido[3,4-d]pyrimidin-7(6H)-yl)(2-(methylsulfonyl)-1H-imidazol-4-yl)methanone], the IC50 was in the range of 0.001 to 10 µM. For the molecule `CS(=O)(=O)c1ncc(C(=O)N2CCc3ccc(Oc4ccc(C(F)(F)F)c(F)c4)cc3C2)[nH]1` [O-0123, (7-(3-fluoro-4-(trifluoromethyl)phenoxy)-3,4-dihydroisoquinolin-2(1H)-yl)(2-(methylsulfonyl)-1H-imidazol-5-yl)methanone], the IC50 lay in the range of 10 to 100 µM.

Consider `CS(=O)(=O)c1nc(C(=O)N2CCc3c(cccc3NC3CCC(F)(F)CC3)C2)c[nH]1` [O-0124, (5-((4,4-difluorocyclohexyl)amino)-3,4-dihydroisoquinolin-2(1H)-yl)(2-(methylsulfonyl)-1H-imidazol-4-yl)methanone], for which the IC50 was over 100 µM. For the molecule `O=C(c1c[nH]c(S(=O)(=O)C2CCC2)n1)N1CCc2c(cccc2Oc2ccc(C(F)(F)F)cc2)C1` [O-0125, (2-(cyclobutylsulfonyl)-1H-imidazol-4-yl)(5-(4-(trifluoromethyl)phenoxy)-3,4-dihydroisoquinolin-2(1H)-yl)methanone], the IC50 was in the range of 0.001 to 10 µM. Same read-out and setting: next, `O=C(c1c[nH]c(S(=O)(=O)C2CCC2)n1)N1CCc2c(cccc2Nc2ccc(C(F)(F)F)cc2)C1` [O-0126, (2-(cyclobutylsulfonyl)-1H-imidazol-4-yl)(5-((4-(trifluoromethyl)phenyl)amino)-3,4-dihydroisoquinolin-2(1H)-yl)methanone]: 0.001 to 10 µM; `CCS(=O)(=O)c1nc(C(=O)N2CCc3c(ncnc3Oc3ccc(C(F)(F)F)cc3)C2)c[nH]1` [O-0130, (2-(ethylsulfonyl)-1H-imidazol-4-yl)(4-(4-(trifluoromethyl)phenoxy)-5,8-dihydropyrido[3,4-d]pyrimidin-7(6H)-yl)methanone]: 10 to 100 µM.

Still in this assay, the particulars now being: MSTO-211H+12XGTIIC cell line, 24 hours compound incubation, luminescence normalized to cell viability fluorescence signal; read-out: MSTO-211H GMean IC50 (uM) Cell Assay Reporter Cell Variant: TEAD.
Regarding `CS(=O)(=O)c1nc(C(=O)N2CCc3c(ncnc3Oc3ccc(C(F)(F)F)c(F)c3)C2)c[nH]1` [O-0115, (4-(3-fluoro-4-(trifluoromethyl)phenoxy)-5,8-dihydropyrido[3,4-d]pyrimidin-7(6H)-yl)(2-(methylsulfonyl)-1H-imidazol-4-yl)methanone], the IC50 lay in the range of 0.001 to 10 µM.

`CCS(=O)(=O)c1nc(C(=O)N2CCc3c(ncnc3Oc3ccc(C(F)(F)F)cc3F)C2)c[nH]1` [O-0116, (2-(ethylsulfonyl)-1H-imidazol-4-yl)(4-(2-fluoro-4-(trifluoromethyl)phenoxy)-5,8-dihydropyrido[3,4-d]pyrimidin-7(6H)-yl)methanone]: the IC50 was in the range of 0.001 to 10 µM. The same measure, in the same setting: the result for `CS(=O)(=O)c1nc(C(=O)N2CCc3c(ncnc3Oc3ccc(C(F)(F)F)cc3)C2)c[nH]1` [O-0119, (2-(methylsulfonyl)-1H-imidazol-4-yl)(4-(4-(trifluoromethyl)phenoxy)-5,8-dihydropyrido[3,4-d]pyrimidin-7(6H)-yl)methanone] reads 0.001 to 10 µM. Consider `CS(=O)(=O)c1nc(C(=O)N2CCc3ccc(Nc4ccc(C(F)(F)F)c(F)c4)cc3C2)c[nH]1` [O-0121, (7-((3-fluoro-4-(trifluoromethyl)phenyl)amino)-3,4-dihydroisoquinolin-2(1H)-yl)(2-(methylsulfonyl)-1H-imidazol-4-yl)methanone], for which the IC50 was 0.001 to 10 µM. The same measure, in the same setting: the result for `CS(=O)(=O)c1nc(C(=O)N2CCc3c(ncnc3Oc3ccc(C(F)(F)F)c(F)c3)C2)c[nH]1` [O-0128, (4-(3-fluoro-4-(trifluoromethyl)phenoxy)-5,8-dihydropyrido[3,4-d]pyrimidin-7(6H)-yl)(2-(methylsulfonyl)-1H-imidazol-4-yl)methanone] reads 10 to 100 µM; that for `CCS(=O)(=O)c1nc(C(=O)N2CCc3c(ncnc3Oc3ccc(C(F)(F)F)cc3F)C2)c[nH]1` [O-0129, (2-(ethylsulfonyl)-1H-imidazol-4-yl)(4-(2-fluoro-4-(trifluoromethyl)phenoxy)-5,8-dihydropyrido[3,4-d]pyrimidin-7(6H)-yl)methanone], 10 to 100 µM; that for `CS(=O)(=O)c1nc(C(=O)N2CCc3c(ncnc3Oc3ccc(C(F)(F)F)cc3)C2)c[nH]1` [O-0131, (2-(methylsulfonyl)-1H-imidazol-4-yl)(4-(4-(trifluoromethyl)phenoxy)-5,8-dihydropyrido[3,4-d]pyrimidin-7(6H)-yl)methanone], 10 to 100 µM.
